In patent US20120108501A1, “Protease Inhibitors” (priority 2009, published 2012):
Read-outs that look alike come from different tables or passages of the source.

Key:
[1] = Pharmacokinetics of released PEGylated protease inhibitor following P.O. administration of prodrugs in rats; assay type: in vivo, male Sprague-Dawley rats; parameters: AUCall Mean: concentration or dose not given beside the values; C24 Mean: unit not given here; conditions: rats (n = 4-5); for C24 Mean: concentration at 24 hours
How it was run: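 Prodrugs given orally to male Sprague-Dawley rats, with serial blood via jugular catheter into K2EDTA. Plasma levels of test article or released PEGylated inhibitor measured by LC-MS/MS. PK parameters from noncompartmental analysis.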

CEM-SS cells = assay type: cell-based
Protocol: (§1) To evaluate whether the protease inhibitors described herein retain the ability to protect against HIV-1 infection, CEM-SS cells infected with the RF strain of HIV-1 were treated with test compounds for six days, and then cell viability was monitored using the tetrazolium dye XTT. Infection studies were performed and EC50 values were calculated as the protease inhibitor concentration leading to 50% reduction in cell death compared to virus-infected cells without protease inhibitor. TC50 values were calculated as the protease inhibitor concentration leading to 50% cell death in the absence of viral infection. A value for Therapeutic Index (TI) was calculated as TC50/EC50.

[2] = tested on: human peripheral blood mononuclear cells (PBMCs); assay type: cell-based
Protocol: (§2) Fresh human peripheral blood mononuclear cells (PBMCs) obtained from a commercial source were purified following centrifugation using a Ficoll-Hypaque density gradient. Viable cells were induced to proliferate in the presence of PHA-P and recombinant human IL-2 for 72 hours. PBMCs pooled from three donors were cultured with test compounds in the presence of the HT/92/599 clinical subtype B HIV-1 for seven days, followed by measurement of reverse transcriptase activity in cell supernatants using a radioactive incorporation polymerization assay. Cell supernatant containing HIV-1 viral was incubated for 90 minutes at 37° C. with a reaction mixture containing EGTA, Triton X-100, Tris (pH 7.4), DTT, MgCl2, poly rA, oligo dT, and tritiated thymidine triphosphate (TTP). Incorporation of TTP into DNA was monitored by spotting the reaction mixture onto a DEAE filter mat, followed by washes with 5% phosphate buffer, distilled water, and 70% ethanol, and subsequent drying of the mat. Radioactivity was measured using a Wallac 1450 Microbeta Trilux liquid scintillation counter using Opti-Fluor O. Test compound-associated toxicity was measured in PBMCs cultured for seven days in the absence of virus using XTT reagent. EC50 and EC90 values were calculated as the protease inhibitor concentration leading to 50% and 90% reduction in […], respectively, compared to virus-infected cells without protease inhibitor. TC50 values were calculated as the protease inhibitor concentration leading to 50% cell death in the absence of viral infection. A value for Therapeutic Index (TI) was calculated as TC50/EC50.

HIV-1RF = assay: Cytoprotection in CEM-SS cells infected with HIV-1RF (XTT); assay type: cell-based; conditions: CEM-SS cells infected with RF strain of HIV-1, six days
Protocol: as §1

[3] = tested on: HT/92/599 clinical subtype B HIV-1; assay: HIV-1 reverse transcriptase activity following infection in fresh human PBMCs; assay type: cell-based; conditions: seven days; for EC50: read-out: PBMC/HIV-1HT/92/599 EC50; for EC90: read-out: PBMC/HIV-1HT/92/599 EC90
Protocol: as §2, with “Cell supernatant containing HIV-1 viral was incubated for 90 minutes at 37° C. with a reaction mixture containing EGTA, Triton X-100, Tris (pH 7.4), DTT, MgCl2, poly rA, oligo dT, and tritiated thymidine triphosphate (TTP).” left out

[4] = Pharmacokinetics of PEGylated protease inhibitor prodrugs in rats; assay type: in vivo, male Sprague-Dawley rats; parameters: AUCall / AUC: concentration or dose not given beside the values; conditions: prodrug in plasma
How it was run: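 Male Sprague-Dawley rats dosed; serial blood drawn via jugular vein catheters into K2EDTA and processed to plasma. Test article or released PEGylated molecule quantified by LC-MS/MS; Cmax, AUCall, T½ and MRTlast estimated noncompartmentally.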

[5] = mPEG6-atazanavir in plasma after PO administration of mPEG6-ATV or of the listed prodrug
[6] = mPEG5-atazanavir in plasma after PO administration of mPEG5-ATV or of the listed prodrug
[7] = mPEG3-atazanavir in plasma after PO administration of mPEG3-ATV or of the listed prodrug

CCCCCCCCCCCCCCCCOCC(COP(=O)(O)OC(CN(Cc1ccc(-c2ccccn2)cc1)NC(=O)C(NC(=O)OC)C(C)(C)C)C(Cc1ccccc1)NC(=O)C(NC(=O)OCCOCCOCCOCCOCCOCCOC)C(C)(C)C)OC (centres unmarked) [mPEG6-Atazanavir-monophospholipid, mPEG6-atazanavir monophospholipid]
AUCall Mean [1, 5]: 0.108 ng·h/mL | Cmax Mean [1, 5]: 0.432 ng/mL | MRT last Mean [1, 5]: 0.250 h | Tmax Median [1, 5]: 0.250 h | CC50 (CEM-SS cells): 12.6 µM | CC50 [2]: 37.6 µM | EC50 (HIV-1RF): 14.2 µM | EC50 [3]: 12.4 µM | EC90 [3]: 26.3 µM

CCCCCCCCCCCCCCCCOCC(COP(=O)(O)OC(CN(Cc1ccc(-c2ccccn2)cc1)NC(=O)C(NC(=O)OC)C(C)(C)C)C(Cc1ccccc1)NC(=O)C(NC(=O)OCCOCCOCCOC)C(C)(C)C)OC (centres unmarked) [mPEG3-Atazanavir-monophospholipid]
CC50 (CEM-SS cells): 14.2 µM | CC50 [2]: 43.7 µM | EC50 (HIV-1RF): 0.35 µM | EC50 [3]: 0.97 µM | EC90 [3]: 2.52 µM

COCCOCCOCCOCCOCCOC(=O)N[C@H](C(=O)N[C@@H](Cc1ccccc1)[C@H](CN(Cc1ccc(-c2ccccn2)cc1)NC(=O)[C@@H](NC(=O)OC)C(C)(C)C)OC(=O)[C@H](CC(C)C)NC(=O)[C@@H](N)CC(C)C)C(C)(C)C.Cl [Leu-Leu-mPEG5-Atazanavir HCl, Leu-Leu-mPEG5-Atazanavir Hydrochloride]
C24 Mean [1, 6]: 2.98 | AUCall Mean [1, 6]: 118 ng·h/mL | Cmax Mean [1, 6]: 14.1 ng/mL | MRT last Mean [1, 6]: 10.7 h | Tmax Median [1, 6]: 0.750 h | MRT last ([4]; male, Sprague-Dawley, rat, in vivo): 3.59 ± 3.27 h | concentration at 24 hr ([4]; male, Sprague-Dawley, rat, in vivo, 24 hr, read-out: Cmin(24 hr)): 0.201 ± 0.401 ng/mL | AUC ([4]; male, Sprague-Dawley, rat, in vivo, mean ± SD): 24.9 ± 6.24 ng·h/mL | Cmax ([4]; male, Sprague-Dawley, rat, in vivo, mean ± SD, read-out: Cmax): 7.21 ± 0.417 ng/mL | half-life ([4]; male, Sprague-Dawley, rat, in vivo, read-out: t½(z) (converted)): 3.6 ± 2.59 h

CCCCCCCCCCCCCCCCOCC(COP(=O)(O)OC(CN(Cc1ccc(-c2ccccn2)cc1)NC(=O)C(NC(=O)OC)C(C)(C)C)C(Cc1ccccc1)NC(=O)C(NC(=O)OCCOCCOCCOCCOCCOC)C(C)(C)C)OC (centres unmarked) [mPEG5-Atazanavir-monophospholipid]
CC50 (CEM-SS cells): 12 µM | CC50 [2]: 17.1 µM | CEM-SS/HIV-1RF EC50 (HIV-1RF): no EC50 value could be determined | EC50 (HIV-1RF): > 200 µM | EC50 [3]: 12.3 µM | EC90 [3]: 26.8 µM

COCCOCCOCCOCCOCCOC(=O)NC(C(=O)NC(Cc1ccccc1)C(CN(Cc1ccc(-c2ccccn2)cc1)NC(=O)C(NC(=O)OC)C(C)(C)C)OCOC)C(C)(C)C (centres unmarked) [mPEG5-Atazanavir-methyl methyl ether, mPEG5-Atazanavir Methyl Methyl Ether]
AUCall Mean [1, 6]: 137 ng·h/mL | Cmax Mean [1, 6]: 23.3 ng/mL | MRT last Mean [1, 6]: 4.76 h | Tmax Median [1, 6]: 2.00 h | MRTlast [4]: 3.93 ± 1.41 h | t½(z) [4]: 4.54 ± 1.68 h | Cmin(24 hr) ([4]; 24 hr): 6.61 ± 8.39 ng/mL | AUCall ([4]; mean ± SD): 3530 ± 1960 ng·h/mL | Cmax ([4]; mean ± SD): 773 ± 481 ng/mL

COCCOCCOCCOCCOCCOCCOC(=O)NC(C(=O)NC(Cc1ccccc1)C(CN(Cc1ccc(-c2ccccn2)cc1)NC(=O)C(NC(=O)OC)C(C)(C)C)OC(=O)C(N)CC(C)C)C(C)(C)C.Cl [mPEG6-Atazanavir-L-Leucine]
AUCall Mean [1, 5]: 148 ng·h/mL | Cmax Mean [1, 5]: 9.49 ng/mL | MRT last Mean [1, 5]: 10.2 h | Tmax Median [1, 5]: 0.500 h | MRTlast [4]: 1.72 ± 0.237 h | t½(z) [4]: 2.02 ± 1.07 h | AUCall ([4]; mean ± SD): 107 ± 62.4 ng·h/mL | Cmax ([4]; mean ± SD): 55.5 ± 41.6 ng/mL

CCOC(=O)O[C@@H](CN(Cc1ccc(-c2ccccn2)cc1)NC(=O)[C@@H](NC(=O)OC)C(C)(C)C)[C@H](Cc1ccccc1)NC(=O)[C@@H](NC(=O)OCCOCCOCCOCCOCCOC)C(C)(C)C.Cl [mPEG5-Atazanavir - Ethyl Carbonate HCl, mPEG5-Atazanavir Ethyl Carbonate]
C24 Mean [1, 6]: 2.76 | AUCall Mean [1, 6]: 93.2 ng·h/mL | Cmax Mean [1, 6]: 16.7 ng/mL | MRT last Mean [1, 6]: 8.51 h | Tmax Median [1, 6]: 2.00 h | MRTlast [4]: 2.6 ± 0.514 h | t½(z) [4]: 7.46 ± 4.14 h | Cmin(24 hr) ([4]; 24 hr): 2.19 ± 0.700 ng/mL | AUCall ([4]; mean ± SD): 2250 ± 389 ng·h/mL | Cmax ([4]; mean ± SD): 740 ± 253 ng/mL

COCCOCCOCCOCCOCCOC(=O)NC(C(=O)NC(Cc1ccccc1)C(CN(Cc1ccc(-c2ccccn2)cc1)NC(=O)C(NC(=O)OC)C(C)(C)C)OC(=O)COCCOC(=O)C(Cc1ccccc1)NC(=O)C(N)Cc1ccccc1)C(C)(C)C.Cl (stereo not drawn) [CME Phe-Phe-mPEG5-Atazanavir HCl, mPEG5-atazanavir-ethoxy-CME-Phe-Phe]
AUCall Mean [1, 6]: 299 ng·h/mL | MRT last Mean [1, 6]: 23.9 h | Tmax Median [1, 6]: 24.0 h | MRTlast [4]: 1.26 h | Cmin(24 hr) ([4]; 24 hr): BLQ | AUCall ([4]; mean ± SD): 1.22 ng·h/mL | Cmax ([4]; mean ± SD): 2.36 ng/mL

COCCOCCOCCOC(=O)NC(C(=O)NC(Cc1ccccc1)C(CN(Cc1ccc(-c2ccccn2)cc1)NC(=O)C(NC(=O)OC)C(C)(C)C)OC(=O)COCCOC(=O)C(N)CC(C)C)C(C)(C)C.Cl (centres unmarked) [mPEG3-Atazanavir-CME-Leucine HCl, mPEG3-Atazanavir-CME-Leucine]
AUCall Mean [1, 7]: 85.9 ng·h/mL | Cmax Mean [1, 7]: 4.39 ng/mL | MRT last Mean [1, 7]: 17.4 h | Tmax* Median [1, 7]: 9.00 h | MRTlast [4]: 3.74 ± 6.09 h | AUCall ([4]; mean ± SD): 13.1 ± 17.2 ng·h/mL | Cmax ([4]; mean ± SD): 11.5 ± 12.8 ng/mL
